Tests used:
purple nutsedge = assay: Test F post-emergence; format: in vivo, Cyperus rotundus
From the text: Purple nutsedge tubers (Cyperus rotundus) were planted about 2 cm deep in Fallsington silt loam contained in plastic pots 10 cm in diameter. Five tubers were put in each pot. Compounds of this invention were sprayed dissolved in a non-phytotoxic solvent at a volume rate of 560 l/ha. in four different methods of treatment, i.e., soil surface spray, tuber/soil spray, soil incorporated and post-emergence. For the soil surface spray, the compounds were sprayed on the firmed soil surface immediately after planting. For the tuber/soil spray, the compounds were sprayed on the exposed tubers and subtending soil before the untreated covering soil was added. Soil incorporation treatments were mixed in the covering soil. Post-emergence treatments were sprayed on the nutsedge foliage and surrounding soil surface after the nutsedge had emerged and had reached the height of about 12 cm.
Immediately after spraying the surface spray, tuber/soil spray and soil incorporated treatments were misted with about 0.3 cm of water over a 90 minute period and then placed in the greenhouse. Post-emergence treatments were placed directly into the greenhouse and watered carefully so that treatments would not be washed from the foliage.

cassia = assay: Test A pre-emergence; format: in vivo, Cassia tora; set-up: key: 0 = no effect, 10 = maximum effect; letter = response symbol; details: 0.4 kg/ha
From the text: (§1) The activity of these compounds was discovered in a number of greenhouse and field tests. The ratings are based on a numerical scale extending from 0=no effect, to 10=maximum effect. The accompanying descriptive symbols have the following meanings:
(§2) Seeds of crabgrass (Digitaria spp.), barnyardgrass (Echinochloa crusgalli), wild oats (Avena fatua), cassia (Cassia tora), morningglory (Ipomoea spp.), cocklebur (Xanthium spp.), sorghum, corn, soybean, rice, wheat and nutsedge tubers (Cyperus rotundus) were planted in a growth medium and treated preemergence with a nonphytotoxic solvent solution of the compounds of Table XII. Other batches of seeds and tubers for all of the foregoing weed and crop plants were planted at the same time as controls. The control plantings were untreated; i.e., neither any compound nor any solvent was applied. At the same time, cotton having five leaves (including cotyledonary ones), bush beans with the third trifoliate leaf expanding, crabgrass with two leaves, barnyardgrass with two leaves, wild oats with two leaves, cassia with three leaves (including cotyledonary ones), morningglory with four leaves (including the cotyledonary ones), cocklebur with four leaves (including the cotyledonary ones), sorghum with four leaves, corn with four leaves, soybean with two cotyledonary leaves, rice with three leaves, wheat with one leaf, and nutsedge with three-five leaves were sprayed with a nonphytotoxic solvent solution of the compounds of Table XII. Other groups of all the same weed and crop plants were sprayed with the same nonphytotoxic solvent so as to provide control plants. Preemergence and postemergence treated plants and controls were maintained in a greenhouse for sixteen days, then all treated plants were compared with their respective controls and rated visually for response to treatment.

soybean = assay: Test A pre-emergence; format: in vivo; set-up: key: 0 = no effect, 10 = maximum effect; letter = response symbol; details: 0.4 kg/ha
From the text: as §1, §2

wheat [1] = assay: Test A pre-emergence; format: in vivo; set-up: key: 0 = no effect, 10 = maximum effect; letter = response symbol; details: 0.4 kg/ha
From the text: as §1, §2

cocklebur = assay: Test A pre-emergence; format: in vivo, Xanthium spp.; set-up: key: 0 = no effect, 10 = maximum effect; letter = response symbol; details: 0.4 kg/ha
From the text: as §1, §2

sorghum = assay: Test A pre-emergence; format: in vivo; set-up: key: 0 = no effect, 10 = maximum effect; letter = response symbol; details: 0.4 kg/ha
From the text: as §1, §2

morningglory [2] = assay: Test A pre-emergence; format: in vivo, Ipomoea spp.; set-up: key: 0 = no effect, 10 = maximum effect; letter = response symbol; details: 0.4 kg/ha
From the text: as §1, §2

barnyardgrass [3] = assay: Test A pre-emergence; format: in vivo, Echinochloa crusgalli; set-up: key: 0 = no effect, 10 = maximum effect; letter = response symbol; details: 0.4 kg/ha
From the text: as §1, §2

morningglory [4] = assay: Test A post-emergence; format: in vivo, Ipomoea spp.; set-up: key: 0 = no effect, 10 = maximum effect; letter = response symbol; details: 0.4 kg/ha
From the text: as §1, §2

wild oats = assay: Test A post-emergence; format: in vivo, Avena fatua; set-up: key: 0 = no effect, 10 = maximum effect; letter = response symbol
From the text: as §1, §2

nutsedge = assay: Test A post-emergence; format: in vivo, Cyperus rotundus; set-up: key: 0 = no effect, 10 = maximum effect; letter = response symbol; details: 0.4 kg/ha
From the text: as §1, §2

wheat [5] = assay: Test A post-emergence; format: in vivo; set-up: key: 0 = no effect, 10 = maximum effect; letter = response symbol
From the text: as §1, §2

barnyardgrass [6] = assay: Test A post-emergence; format: in vivo, Echinochloa crusgalli; set-up: key: 0 = no effect, 10 = maximum effect; letter = response symbol; details: 2 kg/ha
From the text: as §1, §2

COC(=O)c1ccccc1S(=O)(=O)NC(=O)Nc1nc(OC)cc(OC)n1 [drawing 593]
response rating after 4 weeks (purple nutsedge; .004 kg/ha): 8C
response rating after 4 weeks (purple nutsedge; .008 kg/ha): 10C
response rating after 4 weeks (purple nutsedge; .016 kg/ha): 10C
response rating after 4 weeks (purple nutsedge; .032 kg/ha): 9C
response rating after 4 weeks (purple nutsedge; .064 kg/ha): 10C

CNC(=O)c1ccccc1S(=O)(=O)NC(=O)Nc1nc(C)cc(OC)n1 [drawing 533]
response rating (cassia): 9G
response rating (soybean): 9H
response rating (wheat [1]): 9H
response rating (cocklebur): 9G

COc1cc(C)nc(NC(=O)NS(=O)(=O)c2ccccc2C(=O)SC)n1 [drawing 544]
response rating (cassia): 9G
response rating (sorghum): 9H
response rating (soybean): 9H
response rating (cocklebur): 9G
response rating (morningglory [2]): 9G

CCOC(=O)c1ccccc1S(=O)(=O)NC(=O)Nc1nc(OC)cc(OC)n1 [drawing 598]
response rating after 4 weeks (purple nutsedge; .008 kg/ha): 10C
response rating after 4 weeks (purple nutsedge; .032 kg/ha): 10C
response rating after 4 weeks (purple nutsedge; .125 kg/ha): 10C
response rating after 4 weeks (purple nutsedge; .25 kg/ha): 10C

COc1cc(C)nc(NC(=O)NS(=O)(=O)c2ccccc2C(=O)OCCOCCOCCCl)n1 [drawing 515]
response rating (cassia): 9C
response rating (soybean): 9H
response rating (cocklebur): 9G
response rating (barnyardgrass [3]): 9H
response rating (morningglory [2]): 9G

COc1cc(C)nc(NC(=O)NS(=O)(=O)c2ccccc2C(=O)OC2CCOC2)n1 (centres unmarked) [drawing 513]
response rating (cassia): 9G
response rating (soybean): 9H
response rating (wheat [1]): 9H
response rating (cocklebur): 9G
response rating (barnyardgrass [3]): 9H
response rating (morningglory [2]): 9G

COc1nc(C)nc(NC(=O)NS(=O)(=O)c2ccccc2C(=O)OCc2ccc(Cl)cc2)n1 [drawing 460]
response rating (morningglory [4]): 9C
response rating (wild oats; 0.4 kg/ha): 2C
response rating (nutsedge): 0
response rating (wheat [5]; 0.4 kg/ha): 0

COC(=O)c1cc(Cl)ccc1S(=O)(=O)NC(=O)Nc1nc(OC)cc(OC)n1 [drawing 605]
response rating after 4 weeks (purple nutsedge; .008 kg/ha): 10C
response rating after 4 weeks (purple nutsedge; .032 kg/ha): 10C
response rating after 4 weeks (purple nutsedge; .125 kg/ha): 10C

COC(=O)c1ccccc1S(=O)(=O)NC(=O)Nc1nc(C)cc(OC)n1 [drawing 592]
response rating after 4 weeks (purple nutsedge; .008 kg/ha): 9C
response rating after 4 weeks (purple nutsedge; .016 kg/ha): 9C
response rating after 4 weeks (purple nutsedge; .032 kg/ha): 10C
response rating after 4 weeks (purple nutsedge; .064 kg/ha): 10C

COC(=O)c1ccccc1S(=O)(=O)NC(=O)Nc1nc(OC)nc(OC)n1 [drawing 595]
response rating after 4 weeks (purple nutsedge; .004 kg/ha): 0
response rating after 4 weeks (purple nutsedge; .008 kg/ha): 0
response rating after 4 weeks (purple nutsedge; .032 kg/ha): 3G

COC(=O)c1ccccc1S(=O)(=O)NC(=O)Nc1nc(C)cc(C)n1 [drawing 591]
response rating after 4 weeks (purple nutsedge; .008 kg/ha): 9C
response rating after 4 weeks (purple nutsedge; .016 kg/ha): 9C
response rating after 4 weeks (purple nutsedge; .032 kg/ha): 10C
response rating after 4 weeks (purple nutsedge; .064 kg/ha): 10C

COc1cc(OC)nc(NC(=O)NS(=O)(=O)c2ccccc2C(=O)OC(C)C)n1 [drawing 602]
response rating after 4 weeks (purple nutsedge; .008 kg/ha): 10C
response rating after 4 weeks (purple nutsedge; .032 kg/ha): 10C
response rating after 4 weeks (purple nutsedge; .125 kg/ha): 10C
response rating after 4 weeks (purple nutsedge; .25 kg/ha): 10C

COC(=O)c1ccccc1S(=O)(=O)NC(=O)Nc1nc(C)nc(OC)n1 [drawing 594]
response rating after 4 weeks (purple nutsedge; .004 kg/ha): 0
response rating after 4 weeks (purple nutsedge; .008 kg/ha): 2G
response rating after 4 weeks (purple nutsedge; .016 kg/ha): 2G

COc1cc(C)nc(NC(=O)NS(=O)(=O)c2ccccc2C(=O)OC(C)C)n1 [drawing 601]
response rating after 4 weeks (purple nutsedge; .008 kg/ha): 10C
response rating after 4 weeks (purple nutsedge; .032 kg/ha): 10C
response rating after 4 weeks (purple nutsedge; .125 kg/ha): 10C
response rating after 4 weeks (purple nutsedge; .25 kg/ha): 10C

CCCCOC(=O)c1ccccc1S(=O)(=O)NC(=O)Nc1nc(C)cc(OC)n1 [drawing 599]
response rating after 4 weeks (purple nutsedge; .125 kg/ha): 8C

COC(=O)c1ccccc1S(=O)(=O)NC(=O)Nc1ncccn1 [drawing 418]
response rating (wild oats; 2 kg/ha): 2G
response rating (barnyardgrass [6]): 9C
response rating (wheat [5]; 2 kg/ha): 5G
